Measurements published in US7507730B2, “Substituted pyrazolo[1,5-a]pyrimidines as potassium channel activators” (Bristol-Myers Squibb Company, priority 2005, dated 2009).

Biological target: Kv1.5 (Homo sapiens, UniProt P22460)
Experiment: Kv1.5 inhibition assay (IKur inhibitor assay per cited references)
Type: cell-based
Details: for Kv1.5% inhibition / inhibition at 0.3 µM: at 0.3 μM; for IC50: read-out: Kv1.5 IC50
From the text: Assays to determine the degree of activity of a compound as an IKur inhibitor are well known in the art and are described in references such as J. Gen. Physiol. Apr.; 101 (4):513-43, and Br. J. Pharmacol. 1995 May; 115(2):267-74.

Kv1.5, sequence (P22460 whole entry): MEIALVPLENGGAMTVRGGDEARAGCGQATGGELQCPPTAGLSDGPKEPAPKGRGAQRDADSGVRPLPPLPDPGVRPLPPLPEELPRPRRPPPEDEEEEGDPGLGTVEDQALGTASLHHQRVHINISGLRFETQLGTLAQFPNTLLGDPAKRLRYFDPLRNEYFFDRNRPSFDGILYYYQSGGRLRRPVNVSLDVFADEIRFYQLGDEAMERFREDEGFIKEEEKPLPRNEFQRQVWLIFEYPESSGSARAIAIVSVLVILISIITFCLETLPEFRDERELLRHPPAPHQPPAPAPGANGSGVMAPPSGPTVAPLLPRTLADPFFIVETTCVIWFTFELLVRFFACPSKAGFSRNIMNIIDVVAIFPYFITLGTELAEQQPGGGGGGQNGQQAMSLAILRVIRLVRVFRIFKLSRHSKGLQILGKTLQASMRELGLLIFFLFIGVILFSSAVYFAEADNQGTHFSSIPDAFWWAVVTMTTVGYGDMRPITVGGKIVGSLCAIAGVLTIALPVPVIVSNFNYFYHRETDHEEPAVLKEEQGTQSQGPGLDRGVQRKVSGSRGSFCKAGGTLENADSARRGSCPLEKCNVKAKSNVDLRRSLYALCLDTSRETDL

SMILES	inhibition at 0.3 µM	further results
CC1=C(S(=O)(=O)N2CCCC2)C(c2ccc(Cl)c(Cl)c2)n2nc(C)c(Cl)c2N1 (single isomer, unassigned) [Example 69 Isomer 2, 3-Chloro-7-(3,4-dichlorophenyl)-2,5-dimethyl-6-(pyrrolidin-1-ylsulfonyl)-4,7-dihydropyrazolo[1,5-a]pyrimidine]		Kv1.5% inhibition: 40%
COc1cccc(S(=O)(=O)C2=C(C)Nc3cc(C(F)(F)F)nn3C2c2ccc(Cl)cc2)c1 (single isomer, unassigned) [Example 40 Isomer 1, 7-(4-Chlorophenyl)-6-(3-methoxyphenylsulfonyl)-5-methyl-2-(trifluoromethyl)-4,7-dihydropyrazolo[1,5-a]pyrimidine]	94.4%	
Cc1nc2cc(C(F)(F)F)nn2c(-c2ccc(Cl)c(Cl)c2)c1C(=O)N(C)S(=O)(=O)c1ccccc1 (racemic) [Example 92, 7-(3,4-Dichlorophenyl)-N,5-dimethyl-N-(phenylsulfonyl)-2-(trifluoromethyl)pyrazolo[1,5-a]pyrimidine-6-carboxamide]	41%	
CC1=C(S(=O)(=O)NCc2ccccc2)C(c2ccc(Cl)cc2)n2nc(C(F)(F)F)cc2N1 (racemic) [Example 54, N-Benzyl-7-(4-chlorophenyl)-5-methyl-2-(trifluoromethyl)-4,7-dihydropyrazolo[1,5-a]pyrimidine-6-sulfonamide]	27.7%	
CC1=C(S(=O)(=O)Cc2ccccc2)C(c2ccc(Cl)c(Cl)c2)n2nc(C)cc2N1 (racemic) [Example 14, 6-(Benzylsulfonyl)-7-(3,4-dichlorophenyl)-2,5-dimethyl-4,7-dihydropyrazolo[1,5-a]pyrimidine]	50.4%	
CC1=C(S(=O)(=O)c2ccccc2)C(c2ccc(Cl)cc2)n2nc(C(F)(F)F)cc2N1 (single isomer, unassigned) [Example 26 Isomer 1, 7-(4-Chlorophenyl)-5-methyl-6-(phenylsulfonyl)-2-(trifluoromethyl)-4,7-dihydropyrazolo[1,5-a]pyrimidine]	85.8%	
CCN(CC)S(=O)(=O)C1=C(C)Nc2cc(C)nn2C1c1ccc(Cl)c(Cl)c1 (single isomer, unassigned) [Example 61 Isomer 1, 7-(3,4-Dichlorophenyl)-N,N-diethyl-2,5-dimethyl-4,7-dihydropyrazolo[1,5-a]pyrimidine-6-sulfonamide]		Kv1.5% inhibition: 90.5%
Cc1nc2cc(C(F)(F)F)nn2c(-c2ccc(Cl)c(Cl)c2)c1S(=O)(=O)N(C)c1ccccc1 (racemic) [Example 62, 7-(3,4-Dichlorophenyl)-N,5-dimethyl-N-phenyl-2-(trifluoromethyl)pyrazolo[1,5-a]pyrimidine-6-sulfonamide]	12%	
CC1=C(S(=O)(=O)c2ccc(Cl)cc2)C(c2ccc(Cl)c(Cl)c2)n2nc(C(F)(F)F)cc2N1 (single isomer, unassigned) [Example 4 Isomer 2, 6-(4-Chlorophenylsulfonyl)-7-(3,4-dichlorophenyl)-5-methyl-2-(trifluoromethyl)-4,7-dihydropyrazolo[1,5-a]pyrimidine]	36.2%	
CC1=C(S(=O)(=O)c2ccc(Cl)cc2)C(c2ccc(C)cc2)n2nc(C(F)(F)F)cc2N1 (racemic) [Example 34, 6-(4-Chlorophenylsulfonyl)-5-methyl-7-p-tolyl-2-(trifluoromethyl)-4,7-dihydropyrazolo[1,5-a]pyrimidine]	37.6%	
CC1=C(S(=O)(=O)NC2CCCCC2)C(c2ccc(Cl)c(Cl)c2)n2nc(C)cc2N1 (single isomer, unassigned) [Example 38 Isomer 2, N-Cyclohexyl-7-(3,4-dichlorophenyl)-2,5-dimethyl-4,7-dihydropyrazolo[1,5-a]pyrimidine-6-sulfonamide]	27.6%	
COc1ccc(S(=O)(=O)C2=C(C)Nc3cc(C(F)(F)F)nn3C2c2ccc(Cl)cc2)cc1OC (single isomer, unassigned) [Example 51 Isomer 1, 7-(4-Chlorophenyl)-6-(3,4-dimethoxyphenylsulfonyl)-5-methyl-2-(trifluoromethyl)-4,7-dihydropyrazolo[1,5-a]pyrimidine]	69.2%	
COc1ccc(NS(=O)(=O)C2=C(C)Nc3cc(C)nn3C2c2ccc(Cl)c(Cl)c2)cc1 (racemic) [Example 37, 7-(3,4-Dichlorophenyl)-N-(4-methoxyphenyl)-2,5-dimethyl-4,7-dihydropyrazolo[1,5-a]pyrimidine-6-sulfonamide]	25%	
CC1=C(S(=O)(=O)c2ccccn2)C(c2ccc(Cl)cc2)n2nc(C(F)(F)F)cc2N1 (single isomer, unassigned) [Example 47 Isomer 2, 7-(4-Chlorophenyl)-5-methyl-6-(pyridin-2-ylsulfonyl)-2-(trifluoromethyl)-4,7-dihydropyrazolo[1,5-a]pyrimidine]	75.8%	
CC1=C(S(=O)(=O)c2ccc(Cl)cc2)C(c2ccc(Cl)c(Cl)c2)n2nc(C(F)(F)F)cc2N1 (single isomer, unassigned) [Example 4 Isomer 1, 6-(4-Chlorophenylsulfonyl)-7-(3,4-dichlorophenyl)-5-methyl-2-(trifluoromethyl)-4,7-dihydropyrazolo[1,5-a]pyrimidine]		IC50: 180 nM
CC1=C(S(=O)(=O)N2CCCC2)C(c2ccc(Cl)c(Cl)c2)n2nc(C)cc2N1 (single isomer, unassigned) [Example 53 Isomer 1, 7-(3,4-Dichlorophenyl)-2,5-dimethyl-6-(pyrrolidin-1-ylsulfonyl)-4,7-dihydropyrazolo[1,5-a]pyrimidine]		Kv1.5% inhibition: 95.7%
CC1=C(S(=O)(=O)C2CCCCC2)C(c2ccc(Cl)cc2)n2nc(C(F)(F)F)cc2N1 (single isomer, unassigned) [Example 29 Isomer 1, 7-(4-Chlorophenyl)-6-(cyclohexylsulfonyl)-5-methyl-2-(trifluoromethyl)-4,7-dihydropyrazolo[1,5-a]pyrimidine]		IC50: 204 nM
CCN(C(=O)C1=C(C)Nc2cc(C(F)(F)F)nn2C1c1ccc(Cl)c(Cl)c1)S(=O)(=O)c1ccc(Cl)cc1 (single isomer, unassigned) [Example 93 Isomer 1, N-(4-Chlorophenylsulfonyl)-7-(3,4-dichlorophenyl)-N-ethyl-5-methyl-2-(trifluoromethyl)-4,7-dihydropyrazolo[1,5-a]pyrimidine-6-carboxamide]	31%	
CC1=C(S(=O)(=O)c2ccccc2)C(c2ccc(Cl)c(F)c2)n2nc(C(F)(F)F)cc2N1 (single isomer, unassigned) [Example 33 Isomer 2, 7-(4-Chloro-3-fluorophenyl)-5-methyl-6-(phenylsulfonyl)-2-(trifluoromethyl)-4,7-dihydropyrazolo[1,5-a]pyrimidine]		Kv1.5% inhibition: 76.5%
CC1=C(C(=O)N(C)S(=O)(=O)C(C)C)C(c2ccc(Cl)c(Cl)c2)n2nc(C(F)(F)F)cc2N1 (single isomer, unassigned) [Example 96 Isomer 2, 7-(3,4-Dichlorophenyl)-N-(isopropylsulfonyl)-N,5-dimethyl-2-(trifluoromethyl)-4,7-dihydropyrazolo[1,5-a]pyrimidine-6-carboxamide]		Kv1.5% inhibition: 56%
CC1=C(S(=O)(=O)N2CCCC2)C(c2ccc(Cl)c(Cl)c2)n2nc(C)nc2N1 (racemic) [Example 68, 7-(3,4-Dichlorophenyl)-2,5-dimethyl-6-(pyrrolidin-1-ylsulfonyl)-4,7-dihydro-[1,2,4]triazolo[1,5-a]pyrimidine]	7%	
